As usually defined, the GI50 is the concentration that inhibits growth by half. In general, TGI refers to the concentration at which net growth stops. Low values mean more potent growth arrest, high ones less potent growth arrest.

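Each compound was tested at five concentrations against cells in 96-well plates for 48 hours. At the GI50, growth is halved. TGI is the concentration that stops growth completely.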

The results in this text go back to PubChem BioAssay (NCI).

Among the test systems are KM12 colon; SF-539 CNS; MCF7 breast; SK-MEL-2 melanoma; HS 578T breast; UO-31 renal; PC-3 prostate; ACHN renal; SR leukemia; MALME-3M melanoma.
Holding throughout (test): DTP human tumour cell line panel, 48 h

With `Cc1ccc(-n2c3c(c4c(CN(C)C)c(O)ccc42)CCc2ccccc2C3=O)cc1`, the GI50 in the experiment on KM12 colon was 19.3 µM; in the experiment with SF-539 CNS, 19.3 µM; in the experiment on MCF7 breast, 19 µM; in the experiment with SK-MEL-2 melanoma, 19.9 µM; in the experiment with HS 578T breast, 21.3 µM; with UO-31 renal it was 15.9 µM. In addition, the GI50 was 17.5 µM with PC-3 prostate and 16.3 µM in the experiment with ACHN renal. Also, the TGI in the experiment with KM12 colon came to 40 µM; with SF-539 CNS, 36 µM; in the experiment on MCF7 breast, 38.8 µM; with SK-MEL-2 melanoma, 44.5 µM; in the experiment with HS 578T breast, 57.7 µM; in the experiment on UO-31 renal it was 38.2 µM. Moreover, the TGI was found to be 38.4 µM with PC-3 prostate and 36 µM in the experiment on ACHN renal.
Consider `c1ccc2[nH]c(-c3ccc(NN=Nc4ccncc4)cc3)nc2c1`, for which the GI50 was 23 µM in the experiment on KM12 colon; 15.4 µM in the experiment with SK-MEL-2 melanoma; greater than 100 µM with HS 578T breast; 43.6 µM in the experiment with UO-31 renal; 33 µM in the experiment on PC-3 prostate; 31.2 µM in the experiment on ACHN renal. The GI50 with SR leukemia was 47.7 µM. Moreover, the TGI in the experiment on KM12 colon, in the experiment with SK-MEL-2 melanoma, in the experiment on HS 578T breast, in the experiment on UO-31 renal, in the experiment with PC-3 prostate and in the experiment on ACHN renal was greater than 100 µM throughout. In addition, the TGI in the experiment with SR leukemia is greater than 100 µM.
Take `O=C1CCCCCCCC/C=C\CC(c2ccco2)O1` (stereo unspecified): the GI50 in the experiment with KM12 colon was 28.5 µM; in the experiment on SF-539 CNS it was 56 µM; in the experiment with MCF7 breast it was 4.81 µM; in the experiment on SK-MEL-2 melanoma, 21.6 µM; in the experiment with HS 578T breast it was 32.4 µM; in the experiment with UO-31 renal, 21.5 µM. The GI50 in the experiment with PC-3 prostate was 36.3 µM; with ACHN renal it was 23.9 µM; in the experiment with MALME-3M melanoma, 26.3 µM. For the same molecule, the TGI with KM12 colon is greater than 100 µM; in the experiment with SF-539 CNS, greater than 100 µM; in the experiment on MCF7 breast it was greater than 100 µM; in the experiment with SK-MEL-2 melanoma, 58.4 µM; with HS 578T breast, greater than 100 µM; in the experiment with UO-31 renal it was 39.9 µM. In addition, the values for the TGI in the experiment with PC-3 prostate, with ACHN renal and in the experiment on MALME-3M melanoma were greater than 100 µM, 82.4 µM and greater than 100 µM, respectively.
Take `O=[N+]([O-])c1nccn1CC(O)CN1CC1` (stereo unspecified): the concentration for total growth inhibition (TGI) in the experiment on KM12 colon, in the experiment on SF-539 CNS, in the experiment on SK-MEL-2 melanoma, in the experiment on UO-31 renal, in the experiment on ACHN renal and in the experiment with MALME-3M melanoma was greater than 100 µM throughout. Moreover, the TGI in the experiment with SR leukemia was greater than 100 µM.
For the molecule `N[C@@H]1CCCC[C@H]1N.O=C([O-])C(=O)[O-].[Pt+4]`, the GI50 in the experiment on KM12 colon was 10.9 µM; with SF-539 CNS, 10 µM; in the experiment on MCF7 breast, 0.224 µM; with SK-MEL-2 melanoma it was 5.15 µM; with HS 578T breast, greater than 100 µM; in the experiment with UO-31 renal, 8.47 µM. The GI50 with PC-3 prostate was 17.9 µM; in the experiment on ACHN renal, 2.15 µM; with MALME-3M melanoma, 3.22 µM. The TGI was greater than 100 µM with KM12 colon; greater than 83.8 µM with SF-539 CNS; 6.63 µM in the experiment with MCF7 breast; 52.9 µM in the experiment with SK-MEL-2 melanoma; greater than 100 µM with HS 578T breast; 43.6 µM with UO-31 renal. The results for the TGI in the experiment with PC-3 prostate, in the experiment with ACHN renal and in the experiment with MALME-3M melanoma were greater than 100 µM, 45.3 µM and 26.6 µM, respectively.
`O=C(CO)CC(=O)C(=O)Nc1ccccc1`: the TGI in the experiment on KM12 colon, in the experiment with SF-539 CNS, in the experiment on SK-MEL-2 melanoma, with UO-31 renal, with ACHN renal and in the experiment with MALME-3M melanoma was greater than 100 µM in each case. The molecule further gave a TGI with SR leukemia greater than 100 µM.
For the molecule `CCOc1ccc(-c2nonc2NC(=O)c2cccc(C)c2)cc1OCC`, the GI50 was greater than 100 µM with KM12 colon; 35.5 µM in the experiment with SF-539 CNS; greater than 100 µM with SK-MEL-2 melanoma; greater than 100 µM with HS 578T breast; greater than 100 µM in the experiment on UO-31 renal; greater than 100 µM in the experiment on PC-3 prostate. For the same molecule, the GI50 with ACHN renal, with MALME-3M melanoma and in the experiment with SR leukemia was greater than 100 µM throughout. For the same molecule, the TGI in the experiment on KM12 colon, in the experiment on SF-539 CNS, with SK-MEL-2 melanoma, in the experiment on HS 578T breast, in the experiment on UO-31 renal and in the experiment with PC-3 prostate was greater than 100 µM each time. The TGI with ACHN renal, in the experiment with MALME-3M melanoma and in the experiment with SR leukemia was greater than 100 µM each time.
On to `CCCCCC/C=C1\CCC(CN2CCCC2)C1=O` (stereo unspecified), for which the TGI in the experiment with KM12 colon stood at 13.3 µM; with SF-539 CNS it was 34.1 µM; with SK-MEL-2 melanoma, 30.5 µM; with UO-31 renal, 33 µM; with ACHN renal, 32.3 µM; with MALME-3M melanoma, 34.6 µM. Besides, the TGI in the experiment with SR leukemia was greater than 22.4 µM.
Regarding `O=c1ccn(C2OC(CO/N=C/c3ccc(O)c(O)c3O)C(O)C2O)c(=O)[nH]1` (stereo unspecified), the GI50 with KM12 colon was 35.4 µM; in the experiment with SF-539 CNS it was 52.1 µM; in the experiment on MCF7 breast, 18.8 µM; in the experiment with SK-MEL-2 melanoma it was 57.4 µM; with HS 578T breast it was 22.8 µM; with UO-31 renal, 17.2 µM. In addition, the figures for the GI50 in the experiment with PC-3 prostate, in the experiment on ACHN renal and in the experiment on MALME-3M melanoma were 25.1 µM, 31.8 µM and 10.1 µM, respectively. The TGI was greater than 100 µM in the experiment with KM12 colon; greater than 100 µM with SF-539 CNS; 37.6 µM in the experiment on MCF7 breast; greater than 100 µM in the experiment with SK-MEL-2 melanoma; 59.7 µM in the experiment on HS 578T breast; 31.6 µM in the experiment with UO-31 renal. In addition, the TGI with PC-3 prostate was 86.9 µM; in the experiment on ACHN renal it was greater than 100 µM; in the experiment on MALME-3M melanoma it was greater than 100 µM.
`NC(N)=N/N=C\c1cccc(OCc2ccccc2)c1`: the GI50 was 2.41 µM in the experiment with KM12 colon; 5.11 µM with SF-539 CNS; 1.77 µM in the experiment with MCF7 breast; 3.31 µM with SK-MEL-2 melanoma; 9.12 µM in the experiment with HS 578T breast; 7.35 µM in the experiment on UO-31 renal. Moreover, the GI50 in the experiment on PC-3 prostate was 11.2 µM; in the experiment on ACHN renal it was 4.29 µM; in the experiment on MALME-3M melanoma, 3.35 µM. Also, the TGI in the experiment on KM12 colon is 8.33 µM; in the experiment with SF-539 CNS, 20 µM; in the experiment with MCF7 breast it was 3.75 µM; in the experiment on SK-MEL-2 melanoma, 13 µM; in the experiment with HS 578T breast, 28.7 µM; in the experiment with UO-31 renal, 27.9 µM. Moreover, the TGI is 25.1 µM with PC-3 prostate, 18.5 µM in the experiment on ACHN renal and 13.5 µM in the experiment with MALME-3M melanoma.
